Measured values as given in patent US20130280343A1, “Food Products Derived From Cannabinoid-Administered Livestock” (priority 2012, published 2013).

Key:
mice = details: orally administered; cited from earlier work
[1] = test system: mice injected with 5-Hydroxytryptamine (a nociceptive agent); details: orally administered; cited from earlier work
[2] = test system: free range broiler chickens; experiment: dimethylheptylpyran capsules orally administered to free range broiler chickens; format: in vivo; details: 1 μg in cod liver oil capsules, twice-daily oral
Method: In a final embodiment of the present invention, soft gel capsules containing 1 μg of dimethylheptylpyran dissolved in cod liver oil are twice-daily orally administered to free range broiler chickens. Dimethylheptylpyran is an extremely potent cannabinoid receptor agonist.

[3] = accumulation of Δ^9-THC in milk of dairy water buffalo grazing Cannabis indica Himalaya Gold; format: in vivo; details: roughly 400 g Δ^9-THC orally per day, 20 L milk per day
Description: In a second embodiment of the present invention, dairy water buffalo are grazed in a pasture cultivated for their consumption which contains cereals, legumes, and Cannabis indica “Himalaya Gold” (a hardy, outdoor cultivar of Cannabis). The approximate Δ^9-THC, CBN, and CBD levels of the Himalaya Gold Cannabis cultivar are 10.0%, 1.0%, and 0.3%, respectively. The animals are left to graze according to their preference, and all three types of plants are consumed in significant quantity. Particularly, the water buffalo consume about 32 kg of raw plant material per day, of which an average of 4 kg is Cannabis. Thus, roughly 400 g of Δ^9-THC is orally administered to the animals each day.
The cannabinoids present in the Himalaya Gold Cannabis induce physiological effects which affect the composition of the water buffalo's milk. More specifically, several fat-soluble cannabinoids, including Δ^9-THC and 11-Hydroxy-Δ^9-tetrahydrocannabinol (11-OH-Δ^9-THC; an active metabolite of Δ^9-THC), accumulate in the milk during lactogenesis. The cannabinoid-containing raw milk is then harvested from the water buffalo by use of a rotary parlor milking station. […]

humans [4] = experiment: lowest observed effect level (LOEL) for psychoactive effects in humans; format: in vivo; details: orally administered
Method: Contrasting their extremely low toxicity, cannabinoids generally have very low effective doses. […] In humans, the lowest observed effect level (LOEL) for psychoactive effects induced by orally administered Δ^9-THC is 0.04 mg/kg, or 3.2 mg for the average 80 kg adult human. As a result, the therapeutic indices (LD50/ED50) of most cannabinoids are astoundingly high. It would be extremely difficult, if not impossible, for a human or animal to suffer permanent damage due to an intake of cannabinoids, absent a targeted effort to cause such damage.

humans [5] = details: orally administered; cited from earlier work
[6] = accumulation of Δ^9-THC in adipose tissue of finishing hogs given Cannabis tincture in water; details: 100 mg Δ^9-THC orally each day

## C=C(C)[C@@H]1CCC(C)=C[C@H]1c1c(O)cc(CCCCC)cc1O [CBD, cannabidiol]
mice
  median lethal dose (LD50): 13,500 mg/kg

## CCCCCc1cc(O)c2c(c1)OC(C)(C)c1ccc(C)cc1-2 [CBN, cannabinol]
mice
  median lethal dose (LD50): 12,700 mg/kg
[1]
  median effective dose (ED50) for antinociception: 46.2 mg/kg

## CCCCCC(C)C(C)c1cc(O)c2c(c1)OC(C)(C)C1=C2CC(C)CC1 (stereo not shown) [dimethylheptylpyran]
[2]
  calming effect: significantly calms the chickens
  effect on aggressive behavior: inhibits aggressive behavior

## [Cl-].[Na+] [sodium chloride]
mice
  median lethal dose (LD50): 4,000 mg/kg

## CCCCCc1cc(O)c2c(c1)OC(C)(C)[C@@H]1CCC(C)=C[C@@H]21 [Δ^9-THC, delta-9-tetrahydrocannabinol]
[3]
  average transfer rate into milk: 0.15%
  Δ^9-THC content of milk: around 30 mg per L
Humans [4]
  LOEL for psychoactive effects, for the average 80 kg adult human: 3.2 mg
Humans [5]
  lowest observed effect level (LOEL) for psychoactive effects: 0.04 mg/kg
[6]
  average storage rate in adipose tissue: 0.1%
mice
  median lethal dose (LD50): 21,600 mg/kg
[1]
  median effective dose (ED50) for antinociception: 1.0 mg/kg
